Experiments:
Format in all cases: biochemical
IKKβ = target: T1, IKKβ (Homo sapiens, UniProt O14920); assay: in-house DELFIA kinase assay, IKKβ
T1 sequence (O14920 1-756): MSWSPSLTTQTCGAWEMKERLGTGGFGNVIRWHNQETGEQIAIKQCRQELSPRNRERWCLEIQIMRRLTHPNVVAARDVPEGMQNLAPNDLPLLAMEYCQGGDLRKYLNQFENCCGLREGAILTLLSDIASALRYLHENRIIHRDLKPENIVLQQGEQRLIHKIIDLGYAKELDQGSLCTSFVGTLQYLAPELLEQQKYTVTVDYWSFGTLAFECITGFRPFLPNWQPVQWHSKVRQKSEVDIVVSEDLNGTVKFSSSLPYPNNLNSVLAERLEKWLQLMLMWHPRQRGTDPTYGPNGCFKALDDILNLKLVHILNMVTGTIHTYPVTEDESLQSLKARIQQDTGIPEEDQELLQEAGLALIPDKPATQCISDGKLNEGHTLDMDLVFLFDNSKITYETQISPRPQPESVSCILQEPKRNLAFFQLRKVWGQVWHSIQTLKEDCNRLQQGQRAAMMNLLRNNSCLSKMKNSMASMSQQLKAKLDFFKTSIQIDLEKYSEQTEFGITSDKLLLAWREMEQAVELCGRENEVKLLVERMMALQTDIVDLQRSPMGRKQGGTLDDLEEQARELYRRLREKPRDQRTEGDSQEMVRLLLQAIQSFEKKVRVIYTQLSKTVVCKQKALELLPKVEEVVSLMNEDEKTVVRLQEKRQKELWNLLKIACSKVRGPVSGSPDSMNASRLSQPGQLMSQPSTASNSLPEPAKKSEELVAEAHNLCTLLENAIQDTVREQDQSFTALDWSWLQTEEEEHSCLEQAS
Source text: (§1) To examine the pyrrolo[2,3 -b]pyridines as an alternative scaffold, we adopted the AIPP core because it had similar dimensions to 1 SU909, with HBD/HBA motifs positioned at the scaffold extremities to interact with both the hinge region and the G-loop wall of IKKα, a rationale we had previously proposed as the basis for imparting selectivity. A preliminary set of AIPP derivatives was designed to explore its utility as an IKK-targeting scaffold, whilst incorporating additional functionality through which to introduce selectivity for the IKKα isoform (2-4 SU1087, SU1266 and SU1253; FIG. 3). This was achieved by initially adopting two different approaches: either appending a hydrophobic moiety to the pyrrolo[2,3 -b]pyridine motif as a fused form to afford the tricyclic derivatives 2 and 3 SU1266 and SU1087, or as a phenyl substituent to introduce flexibility with the central pyrrolo[2,3 -b]pyridine moiety in 4 SU1253 .

IKKα over IKKβ = assay: selectivity for IKKα over IKKβ from the kinase assay
Source text: as §1, with “SU1253 . […] The pyrrolo[2,3 -b]pyridine was bound to the hinge region in the classical HBA/HBD motif with the GK+3 NH and C═O backbone, whilst the aminoindazole projected towards the top of the pocket to interact with the G-loop (FIG. 4A). […] In both isoforms, the 2 -phenyl moiety was oriented out from the hinge towards the exposed solvent area.” for “SU1253 .”
To shift the selectivity profile towards IKKα, we selected 4 SU1253 for structural optimization based on the notion that sigma-bond rotation between the phenyl ring and the pyrrolo[2,3 -b]pyridine would inbuild the flexibility required to engage with the three dimensional array of residues nearby to exploit differences between the two isoforms. Furthermore, this would enable the inclusion of moieties that could also project into solvent and address solubility considerations. Small groups (NH2, OH, OMe, OEt and F) were initially introduced into the phenyl ring to evaluate their impact on the selectivity profile against both IKKs (5 a-g SU1354 -SU1373, Table 2 ). Our goal was to achieve a 1:50 selectivity ratio of IKKα to IKKβ, with a minimum IKKβ inhibitory Ki of 500 nM.

IKKα = target: T2, IKKα (Homo sapiens, UniProt O15111); assay: in-house DELFIA kinase assay, IKKα
T2 sequence (O15111 1-745): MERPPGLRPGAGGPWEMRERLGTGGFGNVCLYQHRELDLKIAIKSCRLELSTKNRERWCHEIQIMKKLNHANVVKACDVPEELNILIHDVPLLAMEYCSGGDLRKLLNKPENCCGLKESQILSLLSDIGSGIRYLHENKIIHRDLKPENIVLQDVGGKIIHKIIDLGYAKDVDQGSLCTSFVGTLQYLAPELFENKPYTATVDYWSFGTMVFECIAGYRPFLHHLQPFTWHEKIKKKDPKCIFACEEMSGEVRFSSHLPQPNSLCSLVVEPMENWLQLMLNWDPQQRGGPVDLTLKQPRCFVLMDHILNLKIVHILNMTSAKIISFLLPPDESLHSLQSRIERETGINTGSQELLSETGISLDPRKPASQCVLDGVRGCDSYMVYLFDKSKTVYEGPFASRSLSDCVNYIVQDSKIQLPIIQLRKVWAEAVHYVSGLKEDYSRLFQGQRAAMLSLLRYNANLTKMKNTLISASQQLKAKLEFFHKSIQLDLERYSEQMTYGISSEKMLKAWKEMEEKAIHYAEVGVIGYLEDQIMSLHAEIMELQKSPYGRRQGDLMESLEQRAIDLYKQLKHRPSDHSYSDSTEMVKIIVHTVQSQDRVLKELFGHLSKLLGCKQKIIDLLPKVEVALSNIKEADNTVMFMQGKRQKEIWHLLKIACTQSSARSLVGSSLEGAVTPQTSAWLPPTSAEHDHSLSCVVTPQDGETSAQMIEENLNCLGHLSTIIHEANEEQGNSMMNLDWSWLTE
Source text: as §1, with “SU1253 . […] The pyrrolo[2,3 -b]pyridine was bound to the hinge region in the classical HBA/HBD motif with the GK+3 NH and C═O backbone, whilst the aminoindazole projected towards the top of the pocket to interact with the G-loop (FIG. 4A). […] In both isoforms, the 2 -phenyl moiety was oriented out from the hinge towards the exposed solvent area.” for “SU1253 .”

Nc1n[nH]c2ccc(-c3ccnc4[nH]c(-c5cccc(CNC6CCCC6)c5)cc34)cc12 [5n SU1550, 5-(2-(3-((cyclopentylamino)methyl)phenyl)-1 H-pyrrolo[2,3-b]pyridin-4-yl)-1 H-indazol-3-amine]
Ki (IKKβ): 191 nM | selectivity for IKKα over IKKβ, in words (IKKα over IKKβ): tended to improve selectivity | Ki (IKKα): 10 nM

CC(C)COc1cccc(-c2cc3c(-c4ccc5[nH]nc(N)c5c4)ccnc3[nH]2)c1 [5o SU1367, 5-(2-(3 -Isobutoxyphenyl)-1 H-pyrrolo[2,3-b]pyridin-4-yl)-1 H-indazol-3-amine]
IKKβ inhibition, in words (IKKβ): lowest activity against IKKβ | Ki (IKKβ): 458 nM | selectivity for IKKα over IKKβ, in words (IKKα over IKKβ): tended to improve selectivity | Ki (IKKα): 19 nM

Nc1n[nH]c2ccc(-c3ccnc4[nH]c(-c5ccc(OCc6ccccc6)cc5)cc34)cc12 [5s SU1334]
Ki (IKKβ): 189 nM | selectivity for IKKα over IKKβ, in words (IKKα over IKKβ): tended to improve IKKβactivity to reduce selectivity | Ki (IKKα): 16 nM

Cc1ccc(S(=O)(=O)Nc2ccc(-c3cc4c(-c5ccc6[nH]nc(N)c6c5)ccnc4[nH]3)cc2)cc1 [5u SU1283, N-(4-(4-(3 -Amino-1 H-indazol-5-yl)-1 H-pyrrolo[2,3-b]pyridin-2-yl)phenyl)-4-methylbenzenesulfonamide]
Ki (IKKβ): 67 nM | selectivity for IKKα over IKKβ, in words (IKKα over IKKβ): tended to improve IKKβactivity to reduce selectivity | Ki (IKKα): 4 nM

Nc1n[nH]c2ccc(-c3ccnc4[nH]c(-c5cccc(OCCN6CCOCC6)c5)cc34)cc12 [5y SU1336, 5-(2-(3-(2 -Morpholinoethoxy)phenyl)-1 H-pyrrolo[2,3-b]pyridin-4-yl)-1 H-indazol-3-amine]
IKKβ inhibition, in words (IKKβ): good IKKβ inhibition | Ki (IKKβ): 29 nM | Ki (IKKα): 9 nM

COc1ccc(COc2cccc(-c3cc4c(-c5ccc6[nH]nc(N)c6c5)ccnc4[nH]3)c2)cc1 [5z SU1363, 5-(2-(3-((4 -Methoxybenzyl)oxy)phenyl)-1 H-pyrrolo[2,3-b]pyridin-4-yl)-1 H-indazol-3-amine]
Ki (IKKβ): 166 nM | Ki (IKKα): 43 nM

Nc1n[nH]c2ccc(-c3ccnc4[nH]c(-c5cc(F)cc(OCc6ccccc6)c5)cc34)cc12 [6a SU1371, 5-(2-(3-(Benzyloxy)-5-fluorophenyl)-1 H-pyrrolo[2,3-b]pyridin-4-yl)-1 H-indazol-3-amine]
Ki (IKKβ): 5030 nM | Ki (IKKα): 59 nM

COCCOCc1cc(OCc2ccccc2)cc(-c2cc3c(-c4ccc5[nH]nc(N)c5c4)ccnc3[nH]2)c1 [6b SU1358, 5-(2-(3-(Benzyloxy)-5-((2-methoxyethoxy)methyl)phenyl)-1 H-pyrrolo[2,3-b]pyridin-4-yl)-1 H-indazol-3-amine]
Ki (IKKβ): 1220 nM | Ki (IKKα): 29 nM

COCCNc1cc(OCc2ccccc2)cc(-c2cc3c(-c4ccc5[nH]nc(N)c5c4)ccnc3[nH]2)c1 [6c SU1365, 5-(2-(3-(Benzyloxy)-5-((2-methoxyethyl)amino)phenyl)-1 H-pyrrolo[2,3-b]pyridin-4-yl)-1 H-indazol-3-amine]
Ki (IKKβ): 1530 nM | Ki (IKKα): 26 nM

Nc1n[nH]c2ccc(-c3ccnc4[nH]c(-c5ccc(OCc6ccccc6)nc5)cc34)cc12 [6d SU1350, 5-(2-(6-(Benzyloxy)pyridin-3-yl)-1 H-pyrrolo[2,3-b]pyridin-4-yl)-1 H-indazol-3-amine]
Ki (IKKβ): 22 nM | selectivity for IKKα over IKKβ, in words (IKKα over IKKβ): reduced selectivity | Ki (IKKα): 12 nM

Nc1n[nH]c2ccc(-c3ccnc4[nH]c(-c5cncc(OCc6ccccc6)c5)cc34)cc12 [6e SU1337, 5-(2-(5-(Benzyloxy)pyridin-3-yl)-1 H-pyrrolo[2,3-b]pyridin-4-yl)-1 H-indazol-3-amine]
Ki (IKKβ): 1550 nM | Ki (IKKα): 21 nM

Nc1n[nH]c2ccc(-c3ccnc4[nH]c(-c5cc(F)nc(CNc6ccccc6)c5)cc34)cc12 [6f SU1394, 5-(2-(2 -Fluoro-6-((phenylamino)methyl)pyridin-4-yl)-1 H-pyrrolo[2,3-b]pyridin-4-yl)-1 H-indazol-3-amine]
Ki (IKKβ): 503 nM | Ki (IKKα): 33 nM

Nc1n[nH]c2ccc(-c3ccnc4[nH]c(-c5ccnc(SCc6ccccc6)c5)cc34)cc12 [6h SU1615, 5-(2-(2-(Benzylthio)pyridin-4-yl)-1 H-pyrrolo[2,3-b]pyridin-4-yl)-1 H-indazol-3-amine]
Ki (IKKβ): 1180 nM | Ki (IKKα): 5 nM

Nc1n[nH]c2ccc(-c3ccnc4[nH]c(-c5cc(F)nc(SCc6ccccc6)c5)cc34)cc12 [6i SU1380, 5-(2-(2-(Benzylthio)-6-fluoropyridin-4-yl)-1 H-pyrrolo[2,3-b]pyridin-4-yl)-1 H-indazol-3-amine]
Ki (IKKβ): 3000 nM | Ki (IKKα): 127 nM

Nc1n[nH]c2ccc(-c3ccnc4[nH]c(-c5cc(OCc6ccccc6)ccn5)cc34)cc12 [6j SU1602, 5-(2-(4-(Benzyloxy)pyridin-2-yl)-1 H-pyrrolo[2,3-b]pyridin-4-yl)-1 H-indazol-3-amine]
Ki (IKKβ): 2300 nM | Ki (IKKα): 25 nM

Nc1n[nH]c2ccc(-c3ccnc4[nH]c(-c5ccnc(OCCc6ccccc6)c5)cc34)cc12 [6l SU1621, 5-(2-(2 -Phenethoxypyridin-4-yl)-1 H-pyrrolo[2,3-b]pyridin-4-yl)-1 H-indazol-3-amine]
Ki (IKKβ): 1600 nM | Ki (IKKα): 42 nM

Source: patent US20260315487A1, “IKK-ALPHA INHIBITORS” (Cancer Research Technology Limited, priority 2023, published 2026)
